From patent publication US4732890A, “Retro-inverso hexapeptide neurotensin analogs, process for their preparation and pharmaceutical compositions containing them” (Eniricerche S.p.A., priority 1985, dated 1988)

Key:
male rats = assay: Blood pressure after i.v. injection in urethane-anesthetized male rats; format: in vivo, rat; conditions: 20 meq/Kg; for Arterial pressure: i.v. right femoral vein, basal 80-130 mmHg; for Pressure Δ: i.v., versus basal 80-130 mmHg
Experimental: Typically, male rats weighing about 200-300 g, anesthetized with urethane (1.75 g/Kg i.p.), were employed in these tests and the hexapeptide [drawing 9] was administered by i.v. injection in the right femoral vein at a dosage of 20 meq/Kg body weight.
Blood pressure was recorded at different times following the injection.
The basal values were on the average 80-130 mmHg.

[1] = cited from earlier work

Substance	Arterial pressure (male rats; 30' from admin.)	Pressure Δ (male rats; 30' from admin.)	Arterial pressure (male rats; 1 h from admin.)	Pressure Δ (male rats; 1 h from admin.)	Arterial pressure (male rats; 2 h from admin.)	Pressure Δ (male rats; 2 h from admin.)	Arterial pressure (male rats; 2.5 h from admin.)	Pressure Δ (male rats; 2.5 h from admin.)	Arterial pressure (male rats; 3.5 h from admin.)	Pressure Δ (male rats; 3.5 h from admin.)	Arterial pressure (male rats; 4.5 h from admin.)	Pressure Δ (male rats; 4.5 h from admin.)	Arterial pressure (male rats; 5 h from admin.)	Pressure Δ (male rats; 5 h from admin.)	Arterial pressure (male rats; 6 h from admin.)	Pressure Δ (male rats; 6 h from admin.)	in vivo biological activity relative to NT [1]
Arginyl-arginyl-prolyl-tyrosyl-gem diamino-isoleucyl-(R,S)malonyl-leucine [Example 1]	80-125 mmHg	0-5	75-125 mmHg	5-5	75-125 mmHg	5-5	75-120 mmHg	5-10	75-120 mmHg	5-10	70-110 mmHg	10-20	70-110 mmHg	10-20	65-105 mmHg	15-25	
Arg-Arg-Pro-Tyr-Ile-Leu (RRPYIL; printed: Arg-Arg-Pro-Tyr-Ile-Leu) [C-terminal hexapeptide, C-terminal hexapeptide fragment of NT]																	much lower than NT itself
